Among the data in PubChem BioAssay (NCI) are GI50 and TGI values, retold here.

Among the test systems are MALME-3M melanoma; HCT-116 colon; 786-0 renal; HOP-62 NSCLC; NCI-H460 lung; CCRF-CEM leukemia; T-47D breast; SW-620 colon; OVCAR-5 ovarian; SN12C renal.
Assay in all cases: NCI tumour cell line growth inhibition, 48 h

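48-hour exposure; five concentrations; linearly interpolated endpoints. Here, GI50 denotes the concentration required for 50% inhibition of growth. TGI marks complete inhibition of growth.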

As to `CCC(=O)Nc1nnc(Cc2ccc(OC)c(OC)c2)s1`, the GI50 with MALME-3M melanoma, in the test with HCT-116 colon, in the test with 786-0 renal, in the test on HOP-62 NSCLC, with NCI-H460 lung and with CCRF-CEM leukemia was above 100 µM in each case. Moreover, the GI50 in the test with T-47D breast, in the test with SW-620 colon, in the test on OVCAR-5 ovarian and in the test with SN12C renal was above 100 µM in each case. Besides, the TGI with MALME-3M melanoma, in the test with HCT-116 colon, with 786-0 renal, with HOP-62 NSCLC, in the test on NCI-H460 lung and with CCRF-CEM leukemia was above 100 µM throughout. In addition, the TGI with T-47D breast, with SW-620 colon, in the test on OVCAR-5 ovarian and in the test on SN12C renal was above 100 µM in each case.

With `O=C1Cc2cc(CCN3CCNCC3)c(Cl)cc2N1`, the GI50 with HCT-116 colon is 10 µM; in the test with 786-0 renal, above 100 µM; in the test with HOP-62 NSCLC, 19.3 µM; in the test on NCI-H460 lung, 22.9 µM; in the test on CCRF-CEM leukemia, 2.98 µM; in the test with T-47D breast, 29.1 µM. In addition, the GI50 in the test on SW-620 colon is 4.98 µM; with OVCAR-5 ovarian it was 79.2 µM; with SN12C renal, 6 µM. The TGI in the test on HCT-116 colon, in the test on 786-0 renal, with HOP-62 NSCLC, in the test with NCI-H460 lung, in the test on CCRF-CEM leukemia and in the test on T-47D breast was above 100 µM in each case. Besides, the TGI with SW-620 colon, in the test with OVCAR-5 ovarian and in the test with SN12C renal was above 100 µM throughout.

Take `Cn1c(I)c(C#C[Si](C)(C)C)c(=O)[nH]c1=O`: the GI50 in the test with MALME-3M melanoma is 1.96 µM; in the test on HCT-116 colon, 1.89 µM; with 786-0 renal, 16.4 µM; in the test on HOP-62 NSCLC it was 17.6 µM; in the test on NCI-H460 lung, 19.7 µM; in the test with CCRF-CEM leukemia, 1.74 µM. In addition, the GI50 was 2.54 µM with T-47D breast, 1.71 µM in the test with SW-620 colon, 14.7 µM in the test with OVCAR-5 ovarian and 6.66 µM in the test on SN12C renal. The TGI in the test on MALME-3M melanoma was 4.25 µM; in the test on HCT-116 colon, 3.57 µM; in the test on 786-0 renal it was 30.4 µM; with HOP-62 NSCLC it was 32.4 µM; in the test on NCI-H460 lung, 41.3 µM; with CCRF-CEM leukemia, 3.65 µM. The TGI in the test with T-47D breast turned out to be 8 µM; in the test on SW-620 colon, 3.23 µM; in the test with OVCAR-5 ovarian it was 30.8 µM; with SN12C renal, 20.5 µM.

Consider `CCOCCOCCOCCOCCOCCOCCOCCOCCOCCO` (tested in a mixture with another compound), for which the GI50 in the test on MALME-3M melanoma was 3.65 µM; in the test on HCT-116 colon it was 1.01 µM; with 786-0 renal it was 2.83 µM; with HOP-62 NSCLC it was 1.07 µM; in the test with NCI-H460 lung, 1.2 µM; with CCRF-CEM leukemia it was 1.06 µM. Further, the values for the GI50 with T-47D breast and in the test with SW-620 colon were 1.12 µM and 1.56 µM, respectively. Besides, the TGI with MALME-3M melanoma is 9.23 µM; in the test on HCT-116 colon, 4.68 µM; with 786-0 renal, 14.4 µM; in the test on HOP-62 NSCLC, 4.45 µM; in the test with NCI-H460 lung, 6.82 µM; with CCRF-CEM leukemia, above 32.5 µM. The TGI turned out to be 7.16 µM in the test on T-47D breast and 8.17 µM with SW-620 colon.

Turning to `CCS(=O)(=O)c1ccc(OC)c(Nc2ncc(-c3cccc(F)c3)o2)c1`, the GI50 with MALME-3M melanoma, in the test with HCT-116 colon, with 786-0 renal, in the test with HOP-62 NSCLC, with NCI-H460 lung and in the test on CCRF-CEM leukemia was above 25 µM throughout. Also, the GI50 in the test on T-47D breast, with SW-620 colon, with OVCAR-5 ovarian and in the test on SN12C renal was above 25 µM throughout. The TGI with MALME-3M melanoma, in the test with HCT-116 colon, in the test with 786-0 renal, in the test with HOP-62 NSCLC, with NCI-H460 lung and in the test on CCRF-CEM leukemia was above 25 µM in each case. The TGI in the test on T-47D breast, with SW-620 colon, in the test on OVCAR-5 ovarian and in the test with SN12C renal was above 25 µM throughout.

Regarding `CC1=C(C(=O)Nc2ccc(Cl)c(Cl)c2)C(c2cccc(Cl)c2)NC(=S)N1` (stereo not drawn), the GI50 in the test with MALME-3M melanoma was 10.9 µM; in the test with HCT-116 colon, 7.75 µM; in the test on 786-0 renal, 8.79 µM; in the test with HOP-62 NSCLC it was 10.3 µM; in the test with NCI-H460 lung it was 24.3 µM; in the test with CCRF-CEM leukemia, 30.5 µM. For the same compound, the GI50 with T-47D breast was 31.5 µM; with SW-620 colon it was 15.6 µM; in the test on SN12C renal, 8.4 µM. Further, the TGI in the test with MALME-3M melanoma was 29.8 µM; in the test with HCT-116 colon, 21.5 µM; with 786-0 renal it was 18.3 µM; in the test on HOP-62 NSCLC, 19.2 µM; with NCI-H460 lung it was above 50 µM; with CCRF-CEM leukemia it was above 50 µM. Further, the TGI is above 50 µM in the test on T-47D breast, 36.1 µM with SW-620 colon and 18.3 µM in the test with SN12C renal.

`O=C(C(=CN1CCN(C(=O)c2ccco2)C1=S)C(=O)c1ccccc1)c1ccccc1`: the GI50 in the test on MALME-3M melanoma was 3.05 µM; in the test with HCT-116 colon, 7.93 µM; with 786-0 renal, 8.23 µM; in the test with HOP-62 NSCLC, 15.9 µM; in the test on NCI-H460 lung it was 2.35 µM; with T-47D breast, above 50 µM. For the same compound, the GI50 with SW-620 colon was 8.73 µM; with SN12C renal it was 6.07 µM. In addition, the TGI was 43.3 µM in the test on MALME-3M melanoma; 17 µM in the test with HCT-116 colon; 19.2 µM in the test on 786-0 renal; 44.2 µM with HOP-62 NSCLC; 11.6 µM in the test with NCI-H460 lung; above 50 µM in the test with T-47D breast. Moreover, the TGI came out at 20.3 µM with SW-620 colon and 14.4 µM in the test on SN12C renal.
